Laboratory results taken from US8841312B2, “Fused pyridine, pyrimidine and triazine compounds as cell cycle inhibitors” (Amgen Inc., priority 2007, dated 2014).

Key:
Cdk4/CyclinD1 = Cdk4/CyclinD1 (Homo sapiens (Human), UniProt P11802); assay: Cdk4 kinase inhibition assay with recombinant Cdk4/CyclinD1, Rb substrate, [33P]-ATP filter plate; type: biochemical; details: 25 μM ATP, read-out: Cdk 4 IC50
How it was run: (§1)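 Recombinant Cdk4/CyclinD1 or Cdk6/CyclinD3 phosphorylated Rb protein with [33P]-ATP for 1 h at room temperature. Protein was TCA-precipitated on filter plates and bound radioactivity counted. IC50 by nonlinear regression.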

Cdk6/CyclinD3 = Cdk6/CyclinD3 (Homo sapiens (Human), UniProt Q00534); assay: Cdk6 kinase inhibition assay with recombinant Cdk6/CyclinD3, Rb substrate, [33P]-ATP filter plate; type: biochemical; details: 25 μM ATP, read-out: Cdk 6 IC50
How it was run: as §1

Cdk6/CyclinD3, sequence (Q00534 whole entry): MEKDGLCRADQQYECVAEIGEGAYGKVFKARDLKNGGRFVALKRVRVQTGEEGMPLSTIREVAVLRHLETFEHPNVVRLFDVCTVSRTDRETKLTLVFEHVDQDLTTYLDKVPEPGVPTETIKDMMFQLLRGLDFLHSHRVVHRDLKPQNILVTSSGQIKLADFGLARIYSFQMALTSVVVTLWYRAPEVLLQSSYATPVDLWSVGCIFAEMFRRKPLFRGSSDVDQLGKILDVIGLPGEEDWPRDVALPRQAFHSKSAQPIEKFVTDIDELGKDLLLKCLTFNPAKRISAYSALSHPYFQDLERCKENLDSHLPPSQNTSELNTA
Cdk6/CyclinD3, sequence (P30281 whole entry partner): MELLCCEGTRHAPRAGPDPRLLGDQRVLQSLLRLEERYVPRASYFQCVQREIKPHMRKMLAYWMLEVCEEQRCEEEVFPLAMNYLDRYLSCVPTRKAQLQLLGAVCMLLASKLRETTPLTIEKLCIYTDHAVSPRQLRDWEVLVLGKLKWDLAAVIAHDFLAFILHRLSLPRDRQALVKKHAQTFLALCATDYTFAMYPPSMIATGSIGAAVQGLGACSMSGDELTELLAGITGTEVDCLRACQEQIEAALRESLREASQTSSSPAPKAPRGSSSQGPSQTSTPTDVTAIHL
Cdk4/CyclinD1, sequence (P11802 whole entry): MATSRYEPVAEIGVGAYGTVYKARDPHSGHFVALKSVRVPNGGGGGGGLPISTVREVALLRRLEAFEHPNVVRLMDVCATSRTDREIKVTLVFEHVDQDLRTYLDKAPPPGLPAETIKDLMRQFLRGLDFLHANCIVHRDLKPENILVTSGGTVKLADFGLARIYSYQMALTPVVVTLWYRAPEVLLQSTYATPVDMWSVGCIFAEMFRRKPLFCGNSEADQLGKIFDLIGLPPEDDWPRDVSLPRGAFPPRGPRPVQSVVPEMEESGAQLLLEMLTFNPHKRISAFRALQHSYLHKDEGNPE
Cdk4/CyclinD1, sequence (P24385 whole entry partner): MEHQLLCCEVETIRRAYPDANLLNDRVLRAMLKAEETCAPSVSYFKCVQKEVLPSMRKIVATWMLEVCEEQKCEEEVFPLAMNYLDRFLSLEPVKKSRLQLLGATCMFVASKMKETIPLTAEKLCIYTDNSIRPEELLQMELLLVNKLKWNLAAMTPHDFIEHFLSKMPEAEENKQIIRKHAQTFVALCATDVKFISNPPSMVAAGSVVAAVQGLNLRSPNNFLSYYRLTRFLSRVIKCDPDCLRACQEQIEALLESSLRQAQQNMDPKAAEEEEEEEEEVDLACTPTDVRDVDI

Row | IC50 (Cdk4/CyclinD1) [µM] | IC50 (Cdk6/CyclinD3) [µM] | Structure (SMILES)
1 | 0.0093 | 0.0166 | Oc1cc(-c2ccc(Nc3ncc4c5ccncc5n(C5CCCC5)c4n3)nn2)ccn1 [Example 264, 4-(6-((9-cyclopentyl-9H-pyrido[4′,3′:4,5]pyrrolo[2,3-d]pyrimidin-2-yl)amino)-3-pyridazinyl)-2-pyridinol]
2 | 0.022 | 0.048 | CN(C)C1CCN(c2ccc(Nc3ncc4c5ccccc5n(C5CCCC5)c4n3)nn2)CC1 [Example 300]
3 | 0.014 | 0.04 | CN(C)[C@H]1CCN(c2ccc(Nc3ncc4c5ccncc5n(C5CCCC5)c4n3)nc2)C1 [Example 288]
4 | 0.011 | 0.042 | CC[C@@H](C)n1c2cnccc2c2cnc(Nc3ccc(N4CCC(NC)CC4)cn3)nc21 [Example 325]
5 | 0.0022 | 0.008 | c1ccc(-n2c3cnccc3c3cnc(Nc4ccc(N5CCNCC5)cn4)nc32)cc1 [Example 14, 9-Phenyl-N-(5-(1-piperazinyl)-2-pyridinyl)-9H-pyrido[4′,3′:4,5]pyrrolo[2,3-d]pyrimidin-2-amine]
6 | 0.233 | 0.36 | COc1ccc(-c2ccc(Nc3ncc4c5ccncc5n(C5CCCC5)c4n3)nn2)cn1 [Example 261, 9-Cyclopentyl-N-(6-(6-methoxy-3-pyridinyl)-3-pyridazinyl)-9H-pyrido[4′,3′:4,5]pyrrolo[2,3-d]pyrimidin-2-amine]
7 | 0.0054 | 0.073 | O=S1(=O)CCN(c2ccc(Nc3ncc4c5ccncc5n(C5CCCC5)c4n3)nc2)CC1 [Example 66]
8 | 0.0041 | 0.018 | CN(CC(=O)O)C1CCN(c2ccc(Nc3ncc4c5ccncc5n(C5CCCC5)c4n3)nc2)CC1 [Example 471]
9 | 0.02 | 0.047 | Cc1nccc2c3cnc(Nc4ccc(N5CCNCC5)cn4)nc3n(C3CCCC3)c12 [Example 54, 9-cyclopentyl-8-methyl-N-(5-(1-piperazinyl)-2-pyridinyl)-9H-pyrido[4′,3′:4,5]pyrrolo[2,3-d]pyrimidin-2-amine]
10 | 0.0039 | 0.0057 | C[C@@H](C1CCCCC1)n1c2cnccc2c2cnc(Nc3ccc(N4CCNCC4)cn3)nc21 [Example 29]
11 | 0.003 | 0.0031 | O=S(=O)(c1ccc(Nc2ncc3c4ccncc4n(C4CCCC4)c3n2)nc1)N1CCNCC1 [Example 227, 9-Cyclopentyl-N-(5-(1-piperazinylsulfonyl)-2-pyridinyl)-9H-pyrido[4′,3′:4,5]pyrrolo[2,3-d]pyrimidin-2-amine]
12 | 0.007 | 0.014 | CCC(C)(C)n1c2cnccc2c2cnc(Nc3ccc(N4CCC(N(C)C)CC4)nn3)nc21 [Example 156, N-(6-(4-(dimethylamino)-1-piperidinyl)-3-pyridazinyl)-9-(1,1-dimethylpropyl)-9H-pyrido[4′,3′:4,5]pyrrolo[2,3-d]pyrimidin-2-amine]
13 | 0.0039 | 0.027 | C[C@@H]1CN(c2ccc(Nc3ncc4c5ccnc(F)c5n(C5CCCC5)c4n3)nn2)CCN1 [Example 253, 9-Cyclopentyl-8-fluoro-N-(6-((3R)-3-methyl-1-piperazinyl)-3-pyridazinyl)-9H-pyrido[4′,3′:4,5]pyrrolo[2,3-d]pyrimidin-2-amine]
14 | 0.02 | 0.022 | CC1CN(c2ccc(Nc3ncc4c5ccnc(F)c5n(C5CCCC5)c4n3)nc2)CC(C)N1 (stereo not drawn) [Example 189, 9-Cyclopentyl-N-(5-(3,5-dimethyl-1-piperazinyl)-2-pyridinyl)-8-fluoro-9H-pyrido[4′,3′:4,5]pyrrolo[2,3-d]pyrimidin-2-amine]
15 | 0.013 | 0.0304 | c1cc2c3cnc(Nc4ccc(N5CCNCC5)cn4)nc3n(CC3CCCCC3)c2cn1 [Example 32, (9-Cyclohexylmethyl-9H-pyrido[4′,3′:4,5]pyrrolo[2,3-d]pyrimidin-2-yl)-(5-piperazin-1-yl-pyridin-2-yl)-amine]
16 | 0.145 | 0.149 | Cn1c(=O)ccc2c3cnc(Nc4ccc(N5CC[C@@H](O)C5)cn4)nc3n(C3CCCC3)c21 [Example 185, 9-Cyclopentyl-2-((5-((3R)-3-hydroxy-1-pyrrolidinyl)-2-pyridinyl)amino)-8-methyl-8,9-dihydro-7H-pyrido[3′,2′:4,5]pyrrolo[2,3-d]pyrimidin-7-one]

Row | IC50 (Cdk4/CyclinD1) [µM] | IC50 (Cdk6/CyclinD3) [µM] | Structure (SMILES)
17 | 0.017 | 0.031 | c1cc2c3cnc(Nc4ccc(NC5CCNCC5)cn4)nc3n(C3CCCC3)c2cn1 [Example 69]
18 | 0.011 | 0.025 | OCC1(n2c3cnccc3c3cnc(Nc4ccc(N5CCNCC5)cn4)nc32)CCCC1 [Example 44, {1-[2-(5-piperazin-1-yl-pyridin-2-ylamino)-pyrido[4′,3′:4,5]pyrrolo[2,3-d]pyrimidin-9-yl]-cyclopentyl}-methanol]
19 | 0.0067 | 0.0071 | O[C@H]1CCCN(c2ccc(Nc3ncc4c5ccncc5n(C5CCCC5)c4n3)nn2)C1 [Example 105]
20 | 0.011 | 0.012 | CN(C)C1CCN(c2ccc(Nc3ncc4c5ccccc5n(C5CCCC5)c4n3)nc2)CC1 [Example 309]
21 | 0.0084 | 0.048 | c1cc2c3cnc(Nc4ccc(N5CCCCC5)nn4)nc3n(C3CCCC3)c2cn1 [Example 107]
22 | 0.144 | 0.34 | CN(C)C1CCN(c2ccc(Nc3ncc4c5ccncc5n([C@@H]5CCNC5)c4n3)nc2)CC1 [Example 349]
23 | 0.0034 | 0.02 | c1cc2c3cnc(Nc4ccc(N[C@@H]5CCNC5)cn4)nc3n(C3CCCC3)c2cn1 [Example 63]
24 | 0.054 | 0.016 | c1cc2c3cnc(Nc4ccc(N5CCNCC5)nn4)nc3n(C3CCC3)c2cn1 [Example 346]
25 | 0.0026 | 0.008 | C[C@@H](CO)NC1CCN(c2ccc(Nc3ncc4c5ccncc5n(C5CCCC5)c4n3)nc2)CC1 [Example 475]
26 | 0.057 | 0.061 | C[C@H](C1CCCCC1)n1c2cnccc2c2cnc(Nc3ccc(N4CCNCC4)cn3)nc21 [Example 28, (R)-[9-(1-Cyclohexyl-ethyl)-9H-pyrido[4′,3′:4,5]pyrrolo[2,3-d]pyrimidin-2-yl]-(5-piperazin-1-yl-pyridin-2-yl)-amine]
27 | 0.0096 | 0.023 | CC[C@@H](C)n1c2cnccc2c2cnc(Nc3ccc(N4CCNCC4)nn3)nc21 [Example 323]
28 | 0.0019 | 0.011 | N[C@@H]1CCN(c2ccc(Nc3ncc4c5ccncc5n(C5CCCC5)c4n3)nn2)C1 [Example 109]
29 | 0.035 | 0.085 | CN(C)CCCN(C)c1ccc(Nc2ncc3c4ccncc4n(C4CCCC4)c3n2)nn1 [Example 290]
30 | 0.146 | 0.053 | OCCCn1c2cnccc2c2cnc(Nc3ccc(N4CCNCC4)nn3)nc21 [Example 352]
31 | 0.0212 | 0.0205 | CN(C)C1CCN(S(=O)(=O)c2ccc(Nc3ncc4c5ccncc5n(C5CCCC5)c4n3)nc2)CC1 [Example 229, 9-cyclopentyl-N-(5-((4-(dimethylamino)-1-piperidinyl)sulfonyl)-2-pyridinyl)-9H-pyrido[4′,3′:4,5]pyrrolo[2,3-d]pyrimidin-2-amine]
32 | 0.0082 | 0.021 | c1cnc2c(c1)c1cnc(Nc3ccc(N4CCNCC4)cn3)nc1n2C1CCCC1 [Example 35, (9-Cyclopentyl-9H-pyrido[3′,2′:4,5]pyrrolo[2,3-d]pyrimidin-2-yl)-(5-piperazin-1-yl-pyridin-2-yl)-amine]

Row | Structure (SMILES) | IC50 (Cdk4/CyclinD1) [µM] | IC50 (Cdk6/CyclinD3) [µM]
33 | C[C@H]1CN(c2ccc(Nc3ncc4c5ccncc5n(C5CCC5)c4n3)nc2)CCN1 [Example 344] | 0.016 | 0.01
